These results are taken from US9913843B2, “Protein kinase C inhibitors and uses thereof” (Rigel Pharmaceuticals, Inc., priority 2012, dated 2018).

The subject of this assay is PKC mediated IL-2 production in human primary T cells. Put plainly: IL-2 ELISA, human primary T cell, anti CD3+CD28+ (whole cell functional assay for PKC mediated IL-2 production). It is filed as cell-based. The procedure:
Human primary T cells were prepared as follows. Fresh PBMC's from All Cells (Cat # PB002) were re-suspended in RPMI (RPMI-1640 with L-Glutamine; Mediatech, Inc., Herndon Va., cat. #10-040-CM) with 10% FBS and seeded into flasks and incubated at 37° C. for 2 hours to allow the monocytes to adhere. The non-adherent cells were then centrifuged and re-suspended in RPMI medium containing 40 U/ml IL2 and seeded into a flask pre-coated with 1 μg/ml aCD3 and 5 ug/ml aCD28 (Anti-Human CD3, BD Pharmingen Catalog #555336, Anti-Human CD28, Beckman Coulter Catalog #IM1376). The cells were stimulated for 3-4 days, then transferred to a fresh flask and maintained in RPMI (RPMI-1640 with L-Glutamine; Mediatech, Inc., Herndon Va., cat. #10-040-CM) with 10% FBS and 40 U/ml IL-2.
Human primary T cells (100,000 cells per well) were pre-incubated with or without test compound in RPMI-1640 with L-Glutamine and 10% FBS for 1 hour at 37° C. Cells were then stimulated by transferring them to round-bottom 96-well plates pre-coated with 1 μg/ml aCD3 and 5 μg/ml aCD28. For counter assay, cells were instead stimulated by adding 8× stock solutions of PMA and ionomycin in RPMI-1640 with L-Glutamine and 10% FBS (for final concentrations of 0.5 ng/ml PMA and 0.1 μM ionomycin, both from Calbiochem). Cells were incubated at 37° C. for 24 hours before 100 μL supernatants were harvested for quantification of IL-2 by ELISA using Human IL-2 Duoset ELISA Kit from R and D Systems, Cat. # DY202E.
Compounds 1-156 were tested in a whole cell functional assay for PKC mediated IL-2 production as follows. Human primary T cell isolation and culture: Human primary T cells were prepared as follows. Whole blood was obtained from a healthy volunteer, mixed 1:1 with PBS, layered on to Ficoll Hypaque (Amersham Pharmacia Biotech, Piscataway, N.J., Catalog #17-1440-03) in 2:1 blood/PBS:ficoll ratio and centrifuged for 30 minutes at 4° C. at 1750 rpm. The cells at the serum: ficoll interface were recovered and washed twice with 5 volumes of PBS. These freshly isolated human peripheral blood mononuclear cells were cultured in Yssel's medium containing 40 U/ml IL2 in a flask pre-coated with 1 μg/ml aCD3 and 5 μg/ml aCD28 (Anti-Human CD3, BD Pharmingen Catalog #555336, Anti-Human CD28, Beckman Coulter Catalog #IM1376). The cells were stimulated for 3-4 days, then transferred to a fresh flask and maintained in RPMI (RPMI-1640 with L-Glutamine; Mediatech, Inc., Herndon Va., cat. #10-040-CM) with 10% FBS and 40 U/ml IL-2. The primary T-cells were then washed twice with PBS to remove the IL-2.
Primary T cell stimulation and IL2 ELISA: Human primary T cells (100,000 cells per well) were pre-incubated with or without test compound in Yssel's medium for 1 hour at 37° C. Cells were then stimulated by transferring them to round-bottom 96-well plates pre-coated with 1 μg/ml aCD3 and 5 μg/ml αCD28. For counter assay, cells were instead stimulated by adding 8× stock solutions of PMA and ionomycin in Yssels (for final concentrations of 0.5 ng/ml PMA and 0.1 uM ionomycin, both from Calbiochem). Cells were incubated at 37° C. for 24 hours before 100 μL supernatants were harvested for quantification of IL-2 by ELISA using Human IL-2 Duoset ELISA Kit from R and D Systems, Cat. # DY202E.
For orientation: An ELISA detects its analyte on a solid surface through an enzyme-linked reagent.

[1] abbreviates: 24 h, human primary T cells stimulated with anti-CD3 + anti-CD28, IL-2 by ELISA, read-out: IC50 for blocking IL-2 production.
Where [2] appears, read: human primary T cells stimulated with anti-CD3 + anti-CD28, 24 h, IL-2 by ELISA, 8 pt, read-out: IL2 ELISA, Human primary T cell, anti-CD3 + CD28, 8 pt (IC50).

What is called pIC50 is −log10 of the IC50, conventionally taken in molar units.

pIC50: −log10 of the molar value. Where two headings read alike, the source gives them in different places.

For `N#Cc1cc(Nc2ncc(F)c(NC[C@@H]3CCCN4CCCC[C@H]34)n2)ccc1C1CC1` [Compound 1, 5-(4-(((1S,9aR)-octahydro-1H-quinolizin-1-yl)methylamino)-5-fluoropyrimidin-2-ylamino)-2-cyclopropylbenzonitrile], the pIC50 by setting is: under setting [1], greater than 4.52; under setting [2], 6.97.
The corresponding values for `Fc1cc(C2CC2)c(-n2cnnn2)cc1Nc1ncc(F)c(NC[C@@H]2CCCN3CCCC[C@H]23)n1` [Compound 2, N2-(4-cyclopropyl-2-fluoro-5-(1H-tetrazol-1-yl)phenyl)-5-fluoro-N4-(((1S,9aR)-octahydro-1H-quinolizin-1-yl)methyl)pyrimidine-2,4-diamine] are greater than 4.52 and 6.43.
The corresponding values for `Cn1nnn(-c2cc(Nc3ncc(F)c(NC[C@@H]4CCCN5CCCC[C@H]45)n3)c(F)cc2C2CC2)c1=O` [Compound 3, 1-(5-(4-(((1S,9aR)-octahydro-1H-quinolizin-1-yl)methylamino)-5-fluoropyrimidin-2-ylamino)-2-cyclopropyl-4-fluorophenyl)-4-methyl-1H-tetrazol-5(4H)-one] are greater than 4.52 and 5.77.
For `Cc1ccc(Nc2ncc(F)c(NC[C@@H]3CCCN4CCCC[C@H]34)n2)cc1-n1cnnn1` [Compound 4, 5-fluoro-N4-(((1S,9aR)-octahydro-1H-quinolizin-1-yl)methyl)-N2-(4-methyl-3-(1H-tetrazol-1-yl)phenyl)pyrimidine-2,4-diamine], in that order: greater than 4.52 and 6.85.
In the case of `N#Cc1cc(Nc2ncc(Cl)c(NCC3CCCN4CCCCC34)n2)ccc1C1CC1` [Compound 5, 5-(4-(((1S,9aR)-octahydro-1H-quinolizin-9-yl)methylamino)-5-chloropyrimidin-2-ylamino)-2-cyclopropylbenzonitrile], the negative logarithm of the IC50 (pIC50) was greater than 4.52 under setting [1] and 6.92 under setting [2].
For `COc1ccc(Nc2ncc(F)c(NC[C@@H]3CCCN4CCCC[C@H]34)n2)cc1-n1nnnc1C` [Compound 6, 5-fluoro-N4-(((1S,9aR)-octahydro-1H-quinolizin-1-yl)methyl)-N2-(4-methoxy-3-(5-methyl-1H-tetrazol-1-yl)phenyl)pyrimidine-2,4-diamine], in that order: greater than 4.52 and 7.05.
The corresponding values for `Cc1nnnn1-c1ccc(F)c(Nc2ncc(F)c(NC[C@@H]3CCCN4CCCC[C@H]34)n2)c1` [Compound 7, 5-fluoro-N2-(2-fluoro-5-(5-methyl-1H-tetrazol-1-yl)phenyl)-N4-(((1S,9aR)-octahydro-1H-quinolizin-1-yl)methyl)pyrimidine-2,4-diamine] are greater than 4.52 and 6.37.
On to `Cc1nnnn1-c1cc(Nc2ncc(F)c(NC[C@@H]3CCCN4CCCC[C@H]34)n2)ccc1F` [Compound 8, 5-fluoro-N2-(4-fluoro-3-(5-methyl-1H-tetrazol-1-yl)phenyl)-N4-(((1S,9aR)-octahydro-1H-quinolizin-1-yl)methyl)pyrimidine-2,4-diamine], for which the pIC50 is greater than 4.52 under setting [1] and 6.98 under setting [2].
For `Cc1ccc(Nc2ncc(F)c(NC[C@@H]3CCCN4CCCC[C@H]34)n2)cc1C#N` [Compound 9, 5-(4-(((1S,9aR)-octahydro-1H-quinolizin-1-yl)methylamino)-5-fluoropyrimidin-2-ylamino)-2-methylbenzonitrile], in that order: greater than 4.52 and 6.71.
With `N#Cc1cccc(Nc2ncc(F)c(NC[C@@H]3CCCN4CCCC[C@H]34)n2)c1` [Compound 10, 3-(4-(((1S,9aR)-octahydro-1H-quinolizin-1-yl)methylamino)-5-fluoropyrimidin-2-ylamino)benzonitrile], the negative logarithm of the IC50 (pIC50) by setting is: under setting [1], greater than 4.52; under setting [2], 6.23.
The corresponding values for `COc1cc(Nc2ncc(F)c(NC[C@@H]3CCCN4CCCC[C@H]34)n2)cc(OC)c1` [Compound 11, 5-fluoro-N4-(((1S,9aR)-octahydro-1H-quinolizin-1-yl)methyl)-N2-(3,5-dimethoxyphenyl)pyrimidine-2,4-diamine] are greater than 4.52 and 5.97.
For `N#Cc1cc(Nc2ncc(F)c(NC[C@@H]3CCCN4CCCC[C@H]34)n2)c(F)cc1C1CC1` [Compound 12, 5-(4-(((1S,9aR)-octahydro-1H-quinolizin-1-yl)methylamino)-5-fluoropyrimidin-2-ylamino)-2-cyclopropyl-4-fluorobenzonitrile], in that order: greater than 4.52 and 6.05.
For `Fc1cnc(Nc2ccccc2)nc1NC[C@@H]1CCCN2CCCC[C@H]12` [Compound 13, 5-fluoro-N4-(((1S,9aR)-octahydro-1H-quinolizin-1-yl)methyl)-N2-phenylpyrimidine-2,4-diamine], in that order: greater than 4.52 and 5.35.
`Cn1nnn(-c2cc(Nc3ncc(F)c(NC[C@@H]4CCCN5CCCC[C@H]45)n3)ccc2OC2COC2)c1=O` [Compound 14, 1-(5-(4-(((1S,9aR)-octahydro-1H-quinolizin-1-yl)methylamino)-5-fluoropyrimidin-2-ylamino)-2-(oxetan-3-yloxy)phenyl)-4-methyl-1H-tetrazol-5(4H)-one]: the pIC50 was greater than 4.52 under setting [1] and 6.70 under setting [2].
For `Cc1cc(C2CC2)c(-n2nnn(C)c2=O)cc1Nc1ncc(F)c(NC[C@@H]2CCCN3CCCC[C@H]23)n1` [Compound 15, 1-(5-(4-(((1S,9aR)-octahydro-1H-quinolizin-1-yl)methylamino)-5-fluoropyrimidin-2-ylamino)-2-cyclopropyl-4-methylphenyl)-4-methyl-1H-tetrazol-5(4H)-one], the negative logarithm of the IC50 (pIC50) is greater than 4.52 under setting [1] and 4.97 under setting [2].
The corresponding values for `CC(C)N1C(=O)C(C)(C)Oc2cc(Nc3ncc(F)c(NC[C@@H]4CCCN5CCCC[C@H]45)n3)ccc21` [Compound 16, 7-(4-(((1S,9aR)-octahydro-1H-quinolizin-1-yl)methylamino)-5-fluoropyrimidin-2-ylamino)-4-isopropyl-2,2-dimethyl-2H-benzo[b][1,4]oxazin-3(4H)-one] are greater than 4.52 and 6.15.
Turning to `COc1cc(Nc2ncc(F)c(NC[C@@H]3CCCN4CCCC[C@H]34)n2)cc(-n2nnn(C)c2=O)c1` [Compound 17, 1-(3-(4-(((1S,9aR)-octahydro-1H-quinolizin-1-yl)methylamino)-5-fluoropyrimidin-2-ylamino)-5-methoxyphenyl)-4-methyl-1H-tetrazol-5(4H)-one], the pIC50 under setting [1] was greater than 4.52 and the pIC50 under setting [2] is 6.39.
For `CC1(C)Oc2cc(Nc3ncc(F)c(NC[C@@H]4CCCN5CCCC[C@H]45)n3)ccc2N(CC2CC2)C1=O` [Compound 18, 7-(4-(((1S,9aR)-octahydro-1H-quinolizin-1-yl)methylamino)-5-fluoropyrimidin-2-ylamino)-4-(cyclopropylmethyl)-2,2-dimethyl-2H-benzo[b][1,4]oxazin-3(4H)-one], the pIC50 under setting [1] is greater than 4.52 and the pIC50 under setting [2] is 6.90.
For `Fc1cnc(Nc2ccc(N3CCOCC3)c(C(F)(F)F)c2)nc1NC[C@@H]1CCCN2CCCC[C@H]12` [Compound 19, 5-fluoro-N2-(3-(trifluoromethyl)-4-morpholinophenyl)-N4-(((1S,9aR)-octahydro-1H-quinolizin-1-yl)methyl)pyrimidine-2,4-diamine], in that order: greater than 4.52 and 6.26.
